Counter-ions that a name gives are not always drawn.
Target: NLRP3 (Homo sapiens, UniProt Q96P20)
Assay: Human whole blood IL1β release assay (LPS + nigericin, AlphaLisa IL-1β)
Format: cell-based
Set-up: Plate out 80 μl of whole blood containing 1βg/ml of LPS in 96-well, clear bottom cell culture plate; from tissue; host or cells: human whole blood from healthy donors, LPS-primed and nigericin-stimulated
Details: NLRP3 inhibitory activity in human whole blood, IL-1β release, 10 μM nigericin, read-out: HWB IC50
Experimental: For systemic delivery, the ability to inhibit NLRP3 when the compounds are present within the bloodstream is of great importance. For this reason, the NLRP3 inhibitory activity of a number of compounds in human whole blood was investigated in accordance with the following protocol.
Human whole blood in Li-heparin tubes was obtained from healthy donors from a volunteer donor panel. • 1. Plate out 80 μl of whole blood containing 1βg/ml of LPS in 96-well, clear bottom cell culture plate (Corning #3585) • 2. Add 10 μl compound (8 points half-log dilution with 10 μM top dose) or vehicle (DMSO 0.1% FAC) to the appropriate wells • 3. Incubate for 3 hrs at 37° C., 5% CO2 • 4. Add 10 μl Nigericin (Sigma # N7143) (10 μM FAC) to all wells • 5. Incubate for 1 hr at 37° C., 5% CO2 • 6. At the end of the incubation period, spin plates at 300×g for 5 mins to pellet cells and remove 20 μl of supernatant and add to 96-well v-bottom plates for IL-1β analysis (note: these plates containing the supernatants can be stored at −80° C. to be analysed at a later date) • 7. IL-1β was measured according to the manufacturer protocol (Perkin Elmer-AlphaLisa IL-1 Kit AL220F-5000) • 8. IC50 data is fitted to a non-linear regression equation (log inhibitor vs response-variable slope 4-parameters)

Sequence of NLRP3 (Q96P20 whole entry): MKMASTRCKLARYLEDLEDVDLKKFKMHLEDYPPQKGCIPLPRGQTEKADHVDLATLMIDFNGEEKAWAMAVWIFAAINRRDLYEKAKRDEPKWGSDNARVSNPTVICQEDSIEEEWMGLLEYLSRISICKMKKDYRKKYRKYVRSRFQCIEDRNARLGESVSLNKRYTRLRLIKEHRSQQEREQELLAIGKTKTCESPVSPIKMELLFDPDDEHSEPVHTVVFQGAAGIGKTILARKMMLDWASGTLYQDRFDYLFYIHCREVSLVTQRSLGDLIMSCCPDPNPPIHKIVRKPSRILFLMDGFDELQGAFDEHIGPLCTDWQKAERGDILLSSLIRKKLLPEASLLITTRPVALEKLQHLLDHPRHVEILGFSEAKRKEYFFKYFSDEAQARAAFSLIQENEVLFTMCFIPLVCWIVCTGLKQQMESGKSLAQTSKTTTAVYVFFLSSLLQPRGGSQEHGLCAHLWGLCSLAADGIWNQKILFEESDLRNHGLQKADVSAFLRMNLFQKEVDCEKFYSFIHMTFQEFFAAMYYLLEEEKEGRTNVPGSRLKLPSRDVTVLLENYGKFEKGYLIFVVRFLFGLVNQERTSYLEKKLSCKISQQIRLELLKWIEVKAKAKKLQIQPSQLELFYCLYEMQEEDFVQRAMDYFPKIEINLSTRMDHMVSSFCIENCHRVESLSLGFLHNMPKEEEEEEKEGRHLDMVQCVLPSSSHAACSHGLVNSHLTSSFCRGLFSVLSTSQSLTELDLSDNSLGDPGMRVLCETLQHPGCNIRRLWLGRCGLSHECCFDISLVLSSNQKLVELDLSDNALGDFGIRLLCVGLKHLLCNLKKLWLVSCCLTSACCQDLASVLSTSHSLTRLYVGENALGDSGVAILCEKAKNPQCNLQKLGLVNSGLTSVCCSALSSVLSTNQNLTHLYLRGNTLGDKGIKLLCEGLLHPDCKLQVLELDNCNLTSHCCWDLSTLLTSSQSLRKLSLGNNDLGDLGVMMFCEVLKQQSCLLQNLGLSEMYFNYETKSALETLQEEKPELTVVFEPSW

| IC50 [nM] | Compound |
| --- | --- |
| ≤ 1000 | CC1CCN1CCS(=O)(=O)NC(=O)Nc1c2c(cc3c1CCC3)CCC2 (stereo not drawn) [Example 89, N-((1,2,3,5,6,7-Hexahydro-s-indacen-4-yl)carbamoyl)-2-(2-methylazetidin-1-yl)ethane-1-sulfonamide] |
| ≤ 1000 | CC(C)N1CCCCC1CS(=O)(=O)NC(=O)Nc1c2c(cc3c1CCC3)CCC2 (stereo not drawn) [Example 109, N-((1,2,3,5,6,7-Hexahydro-s-indacen-4-yl)carbamoyl)-1-(1-isopropylpiperidin-2-yl)methanesulfonamide] |
| ≤ 5000 | O=C(Nc1c2c(cc3c1CCC3)CCC2)NS(=O)(=O)Cc1cccnc1 [Example 20, N-((1,2,3,5,6,7-Hexahydro-s-indacen-4-yl)carbamoyl)-1-(pyridin-3-yl)methanesulfonamide, potassium salt] |
| ≤ 1000 | CC(CS(=O)(=O)NC(=O)Nc1c2c(cc3c1CCC3)CCC2)N1CCC1 (stereo not drawn) [Example 91, 2-(Azetidin-1-yl)-N-((1,2,3,5,6,7-hexahydro-s-indacen-4-yl)carbamoyl)propane-1-sulfonamide] |
| ≤ 1000 | CCN1CCC(CS(=O)(=O)NC(=O)Nc2c3c(cc4c2CCC4)CCC3)CC1 [Example 1, 1-(1-Ethylpiperidin-4-yl)-N-((1,2,3,5,6,7-hexahydro-s-indacen-4-yl)carbamoyl)methanesulfonamide, potassium salt] |
| ≤ 1000 | CCN1CCCC1CS(=O)(=O)NC(=O)Nc1c2c(cc3c1CCC3)CCC2 (stereo not drawn) [Example 106, 1-(1-Ethylpyrrolidin-2-yl)-N-((1,2,3,5,6,7-hexahydro-s-indacen-4-yl)carbamoyl)methanesulfonamide] |
| ≤ 1000 | CC(C)N1CCCC(CS(=O)(=O)NC(=O)Nc2c3c(cc4c2CCC4)CCC3)C1 (stereo not drawn) [Example 93, N-((1,2,3,5,6,7-Hexahydro-s-indacen-4-yl)carbamoyl)-1-(1-isopropylpiperidin-3-yl)methanesulfonamide] |
| ≤ 1000 | CN1CCCC1CS(=O)(=O)NC(=O)Nc1c2c(cc3c1CCC3)CCC2 (stereo not drawn) [Example 105, N-((1,2,3,5,6,7-Hexahydro-s-indacen-4-yl)carbamoyl)-1-(1-methylpyrrolidin-2-yl)methanesulfonamide] |
| ≤ 1000 | CC(C)C1CCN1CCS(=O)(=O)NC(=O)Nc1c2c(cc3c1CCC3)CCC2 (stereo not drawn) [Example 104, N-((1,2,3,5,6,7-Hexahydro-s-indacen-4-yl)carbamoyl)-2-(2-isopropylazetidin-1-yl)ethane-1-sulfonamide] |
| ≤ 5000 | CC(C)C(=O)N(C)CCCS(=O)(=O)NC(=O)Nc1c2c(cc3c1CCC3)CCC2 [Example 95, N-(3-(N-((1,2,3,5,6,7-Hexahydro-s-indacen-4-yl)carbamoyl)sulfamoyl)propyl)-N-methylisobutyramide] |
| ≤ 1000 | CN1CCC(CS(=O)(=O)NC(=O)Nc2c3c(cc4c2CCC4)CCC3)C1 (stereo not drawn) [Example 23, N-((1,2,3,5,6,7-Hexahydro-s-indacen-4-yl)carbamoyl)-1-(1-methylpyrrolidin-3-yl)methanesulfonamide, Potassium Salt] |
| ≤ 5000 | CN(C)CC(C)(C)CS(=O)(=O)NC(=O)Nc1c2c(cc3c1CCC3)CCC2 [Example 81, 3-(Dimethylamino)-N-((1,2,3,5,6,7-hexahydro-s-indacen-4-yl)carbamoyl)-2,2-dimethylpropane-1-sulfonamide] |
| ≤ 1000 | CC(CN(C)C)CS(=O)(=O)NC(=O)Nc1c2c(cc3c1CCC3)CCC2 (stereo not drawn) [Example 36, 3-(Dimethylamino)-N-((1,2,3,5,6,7-hexahydro-s-indacen-4-yl)carbamoyl)-2-methylpropane-1-sulfonamide, potassium salt] |
| ≤ 1000 | CC(=O)N(C)CCCS(=O)(=O)NC(=O)Nc1c2c(cc3c1CCC3)CCC2 [Example 53, N-(3-(N-((1,2,3,5,6,7-Hexahydro-s-indacen-4-yl)carbamoyl)sulfamoyl)propyl)-N-methylacetamide, Potassium Salt] |
| ≤ 1000 | CCN(CC)CCCS(=O)(=O)NC(=O)Nc1c(-c2ccncc2)cc(F)c2c1CCC2 [Example 44, 3-(Diethylamino)-N-((7-fluoro-5-(pyridin-4-yl)-2,3-dihydro-1H-inden-4-yl)carbamoyl)propane-1-sulfonamide] |
| ≤ 1000 | CC1(C)CCN1CCS(=O)(=O)NC(=O)Nc1c2c(cc3c1CCC3)CCC2 [Example 102, 2-(2,2-Dimethylazetidin-1-yl)-N-((1,2,3,5,6,7-hexahydro-s-indacen-4-yl)carbamoyl)ethane-1-sulfonamide] |

| IC50 [nM] | Compound |
| --- | --- |
| ≤ 1000 | CCN(C)CCCS(=O)(=O)NC(=O)Nc1c2c(cc3c1CCC3)CCC2 [Example 27, 3-(Ethyl(methyl)amino)-N-((1,2,3,5,6,7-hexahydro-s-indacen-4-yl)carbamoyl)propane-1-sulfonamide, potassium salt] |
| ≤ 1000 | CC1CC(C)N1CCS(=O)(=O)NC(=O)Nc1c2c(cc3c1CCC3)CCC2 (stereo not drawn) [Example 103, 2-(2,4-Dimethylazetidin-1-yl)-N-((1,2,3,5,6,7-hexahydro-s-indacen-4-yl)carbamoyl)ethane-1-sulfonamide] |
| ≤ 1000 | CC(C)N1CCCC1CS(=O)(=O)NC(=O)Nc1c2c(cc3c1CCC3)CCC2 (stereo not drawn) [Example 107, N-((1,2,3,5,6,7-Hexahydro-s-indacen-4-yl)carbamoyl)-1-(1-isopropylpyrrolidin-2-yl)methanesulfonamide] |
| ≤ 1000 | CCN1CCCCC1CS(=O)(=O)NC(=O)Nc1c2c(cc3c1CCC3)CCC2 (stereo not drawn) [Example 110, 1-(1-Ethylpiperidin-2-yl)-N-((1,2,3,5,6,7-hexahydro-s-indacen-4-yl)carbamoyl)methanesulfonamide] |
| ≤ 5000 | Cn1cc(CS(=O)(=O)NC(=O)Nc2c3c(cc4c2CCC4)CCC3)cn1 [Example 35, N-((1,2,3,5,6,7-hexahydro-s-indacen-4-yl)carbamoyl)-1-(1-methyl-1H-pyrazol-4-yl)methanesulfonamide] |
| ≤ 10000 | CN(CCCS(=O)(=O)NC(=O)Nc1c2c(cc3c1CCC3)CCC2)Cc1ccccc1 [Example 67, 3-(Benzyl(methyl)amino)-N-((1,2,3,5,6,7-hexahydro-s-indacen-4-yl)carbamoyl)propane-1-sulfonamide, potassium salt] |
| ≤ 7500 | CC(C)n1ccc(CS(=O)(=O)NC(=O)Nc2c3c(cc4c2CCC4)CCC3)n1 [Example 111, N-((1,2,3,5,6,7-Hexahydro-s-indacen-4-yl)carbamoyl)-1-(1-isopropyl-1H-pyrazol-3-yl)methanesulfonamide] |
| ≤ 1000 | COc1cc(-c2cc(F)cc(C(C)C)c2NC(=O)NS(=O)(=O)CC2CCN(C)C2)ccn1 (stereo not drawn) [Example 58, N-((4-Fluoro-2-isopropyl-6-(2-methoxypyridin-4-yl)phenyl)carbamoyl)-1-(1-methylpyrrolidin-3-yl)methanesulfonamide] |
| ≤ 1000 | COc1cc(-c2ccc3c(c2NC(=O)NS(=O)(=O)CCOC(C)C)CCO3)ccn1 [Example 62, 2-Isopropoxy-N-((5-(2-methoxypyridin-4-yl)-2,3-dihydro-benzofuran-4-yl)carbamoyl)ethanesulfonamide, sodium salt] |
| ≤ 1000 | CN1CCCC(CS(=O)(=O)NC(=O)Nc2c3c(cc4c2CCC4)CCC3)C1 (stereo not drawn) [Example 83, N-((1,2,3,5,6,7-Hexahydro-s-indacen-4-yl)carbamoyl)-1-(1-methylpiperidin-3-yl)methanesulfonamide] |
| ≤ 1000 | CC(CCS(=O)(=O)NC(=O)Nc1c2c(cc3c1CCC3)CCC2)N(C)C (stereo not drawn) [Example 78, 3-(Dimethylamino)-N-((1,2,3,5,6,7-hexahydro-s-indacen-4-yl)carbamoyl)butane-1-sulfonamide, potassium salt] |
| ≤ 7500 | CCN(CCS(=O)(=O)NC(=O)Nc1c2c(cc3c1CCC3)CCC2)Cc1ccccc1 [Example 11, 2-(Benzyl(ethyl)amino)-N-((1,2,3,5,6,7-hexahydro-s-indacen-4-yl)carbamoyl)ethane-1-sulfonamide, potassium salt] |
| ≤ 1000 | CCN1CCCC(CS(=O)(=O)NC(=O)Nc2c3c(cc4c2CCC4)CCC3)C1 (stereo not drawn) [Example 84, 1-(1-Ethylpiperidin-3-yl)-N-((1,2,3,5,6,7-hexahydro-s-indacen-4-yl)carbamoyl)methanesulfonamide] |
| ≤ 1000 | O=C(Nc1c2c(cc3c1CCC3)CCC2)NS(=O)(=O)CCCN1CCC1 [Example 72, 3-(Azetidin-1-yl)-N-((1,2,3,5,6,7-hexahydro-s-indacen-4-yl)carbamoyl)propane-1-sulfonamide, Potassium Salt] |
| ≤ 7500 | COC(=O)CCS(=O)(=O)NC(=O)Nc1c2c(cc3c1CCC3)CCC2 [Example 92, Methyl 3-(N-((1,2,3,5,6,7-hexahydro-s-indacen-4-yl)carbamoyl)sulfamoyl)propanoate] |
| ≤ 5000 | CN1CC2(COC(CS(=O)(=O)NC(=O)Nc3c4c(cc5c3CCC5)CCC4)C2)C1 (stereo not drawn) [Example 80, N-((1,2,3,5,6,7-Hexahydro-s-indacen-4-yl)carbamoyl)-1-(2-methyl-6-oxa-2-azaspiro[3.4]octan-7-yl)methanesulfonamide] |

| Compound | IC50 [nM] |
| --- | --- |
| C#CCN(C)CCCS(=O)(=O)NC(=O)Nc1c2c(cc3c1CCC3)CCC2 [Example 73] | ≤ 5000 |

Reference: patent US20200331850A1, “NOVEL SULFONAMIDE CARBOXAMIDE COMPOUNDS” (Inflazome Limited, priority 2017, published 2020)
